# Test results: patent US20230085307A1, “PYRIDAZINONE COMPOUND AND HERBICIDE” (NISSAN CHEMICAL CORPORATION, priority 2019, published 2023)
# Assays:
# [1] = system: Italian ryegrass; assay: Test Example 4: herbicidal effect by soil treatment (Table 19, symbol K); format: in vivo, Italian ryegrass (Lolium multiflorum)
# Method in brief: (§1)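 Scoring uses the grading scale of an earlier test, three weeks post-application. Treatment consists of spraying a diluted emulsion formulation across the surface of sterilized diluvial soil in which seeds are buried near 1.5 cm deep; boxes are kept in a greenhouse between 25° C. and 30° C.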
# [2] = system: Chinese sprangletop; assay: Test Example 3: herbicidal effect by foliage application, Wagner pot (Table 18, symbol D); format: in vivo, chinese sprangletop (Leptochloa chinensis)
# Method in brief: (§2)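 Plants were sown in alluvial soil held under 0.1–0.5 cm standing water and grown 14 days in a greenhouse at 25–30 °C. An emulsifiable formulation, water-diluted to the set dose, was then sprayed onto the foliage, and effects were scored three weeks later using previously defined criteria.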
# [3] = system: blackgrass; assay: Test Example 4: herbicidal effect by soil treatment (Table 19, symbol J); format: in vivo, blackgrass (Alopecurus myosuroides)
# Method in brief: as §1
# [4] = system: velvetleaf; assay: Test Example 4: herbicidal effect by soil treatment (Table 19, symbol M); format: in vivo, velvetleaf (Abutilon theophrasti)
# Method in brief: as §1
# [5] = system: redroot pigweed; assay: Test Example 4: herbicidal effect by soil treatment (Table 19, symbol N); format: in vivo, redroot pigweed (Amaranthus retroflexus)
# Method in brief: as §1
# [6] = system: wild oat; assay: Test Example 4: herbicidal effect by soil treatment (Table 19, symbol I); format: in vivo, wild oat (Avena fatua)
# Method in brief: as §1
# [7] = system: southern crabgrass; assay: Test Example 4: herbicidal effect by soil treatment (Table 19, symbol F); format: in vivo, southern crabgrass (Digitaria ciliaris)
# Method in brief: as §1
# [8] = system: chickweed; assay: Test Example 4: herbicidal effect by soil treatment (Table 19, symbol P); format: in vivo, common chickweed (Stellaria media)
# Method in brief: as §1
# [9] = system: persian speedwell; assay: Test Example 4: herbicidal effect by soil treatment (Table 19, symbol R); format: in vivo, Persian speedwell (Veronica persica)
# Text: [Test Example 4] Herbicidal Effect Test by Soil Treatment
# Sterilized diluvial soil was placed in a plastic box having a length of 21 cm, a width of 13 cm, and a depth of 7 cm. The seeds of each of southern crabgrass, green foxtail, barnyard grass, wild oat, blackgrass, Italian ryegrass, windgrass, velvetleaf, redroot pigweed, lambsquarters, chickweed, false cleavers, persian speedwell, corn, soybean, rice, wheat, beet, and rapeseed were sowed in a spot-like manner and covered with the soil having a thickness of about 1.5 cm. Subsequently, the emulsion agent of the compound of the present invention prepared according to Formulation Example 2 was diluted with water so as to achieve a predetermined herbicide amount, and the diluted emulsion agent was uniformly applied to the surface of the soil with a small-sized spray. The plastic box was placed in a greenhouse at 25° C. to 30° C. for growth of the plants. Three weeks after the herbicide application, the effect of the herbicide on each plant was evaluated according to the criteria of Test Example 1.
# [10] = system: barnyard grass; assay: Test Example 3: herbicidal effect by foliage application, Wagner pot (Table 18, symbol H); format: in vivo, barnyard grass (Echinochloa crus-galli)
# Method in brief: as §2
# [11] = system: lambsquarters; assay: Test Example 4: herbicidal effect by soil treatment (Table 19, symbol O); format: in vivo, lambsquarters (Chenopodium album)
# Method in brief: as §1
# [12] = system: rice flat sedge; assay: Test Example 3: herbicidal effect by foliage application, Wagner pot (Table 18, symbol E); format: in vivo, rice flat sedge (Cyperus iria)
# Method in brief: as §2
# [13] = system: green foxtail; assay: Test Example 4: herbicidal effect by soil treatment (Table 19, symbol G); format: in vivo, green foxtail (Setaria viridis)
# Method in brief: as §1
# [14] = system: barnyard grass; assay: Test Example 4: herbicidal effect by soil treatment (Table 19, symbol H); format: in vivo, barnyard grass (Echinochloa crus-galli)
# Method in brief: as §1
# [15] = system: barnyard grass; assay: Test Example 5: herbicidal effect by foliage application, plastic box (Table 20, symbol H); format: in vivo, barnyard grass (Echinochloa crus-galli); settings: 320 g/ha, foliage application after 14-day growth, evaluated three weeks after application
# Method in brief: (§3)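 Post-emergence foliar test in sterilized diluvial soil. Compound applied as water-diluted emulsion at a predetermined rate to 14-day-old plants; evaluation at three weeks.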
# [16] = system: persian speedwell; assay: Test Example 5: herbicidal effect by foliage application, plastic box (Table 20, symbol R); format: in vivo, Persian speedwell (Veronica persica); settings: 320 g/ha, foliage application after 14-day growth, evaluated three weeks after application
# Method in brief: as §3
# [17] = system: velvetleaf; assay: Test Example 5: herbicidal effect by foliage application, plastic box (Table 20, symbol M); format: in vivo, velvetleaf (Abutilon theophrasti); settings: 320 g/ha, foliage application after 14-day growth, evaluated three weeks after application
# Method in brief: as §3
# [18] = system: windgrass; assay: Test Example 5: herbicidal effect by foliage application, plastic box (Table 20, symbol L); format: in vivo, windgrass (Apera spica-venti); settings: 320 g/ha, foliage application after 14-day growth, evaluated three weeks after application
# Method in brief: as §3
# [19] = system: Italian ryegrass; assay: Test Example 5: herbicidal effect by foliage application, plastic box (Table 20, symbol K); format: in vivo, Italian ryegrass (Lolium multiflorum); settings: 320 g/ha, foliage application after 14-day growth, evaluated three weeks after application
# Method in brief: as §3
# [20] = system: green foxtail; assay: Test Example 5: herbicidal effect by foliage application, plastic box (Table 20, symbol G); format: in vivo, green foxtail (Setaria viridis); settings: 320 g/ha, foliage application after 14-day growth, evaluated three weeks after application
# Method in brief: as §3
# [21] = system: redroot pigweed; assay: Test Example 5: herbicidal effect by foliage application, plastic box (Table 20, symbol N); format: in vivo, redroot pigweed (Amaranthus retroflexus); settings: 320 g/ha, foliage application after 14-day growth, evaluated three weeks after application
# Method in brief: as §3
# [22] = system: southern crabgrass; assay: Test Example 5: herbicidal effect by foliage application, plastic box (Table 20, symbol F); format: in vivo, southern crabgrass (Digitaria ciliaris); settings: 320 g/ha, foliage application after 14-day growth, evaluated three weeks after application
# Method in brief: as §3
# [23] = system: blackgrass; assay: Test Example 5: herbicidal effect by foliage application, plastic box (Table 20, symbol J); format: in vivo, blackgrass (Alopecurus myosuroides); settings: 320 g/ha, foliage application after 14-day growth, evaluated three weeks after application
# Method in brief: as §3
# [24] = system: wild oat; assay: Test Example 5: herbicidal effect by foliage application, plastic box (Table 20, symbol I); format: in vivo, wild oat (Avena fatua); settings: 320 g/ha, foliage application after 14-day growth, evaluated three weeks after application
# Method in brief: as §3
# [25] = system: chickweed; assay: Test Example 5: herbicidal effect by foliage application, plastic box (Table 20, symbol P); format: in vivo, common chickweed (Stellaria media); settings: 320 g/ha, foliage application after 14-day growth, evaluated three weeks after application
# Method in brief: as §3
# [26] = system: lambsquarters; assay: Test Example 5: herbicidal effect by foliage application, plastic box (Table 20, symbol O); format: in vivo, lambsquarters (Chenopodium album); settings: 320 g/ha, foliage application after 14-day growth, evaluated three weeks after application
# Method in brief: as §3
# [27] = amount of applied herbicide 280 g/ha
# [28] = amount of applied herbicide 320 g/ha
compound,measurement,setting,value
COc1cccc(-c2sc3ccc(F)cc3c2-c2c(O)c(C)nn(C)c2=O)n1 [2-382],"herbicidal effect, K: Italian ryegrass",[1]; [27],1 (Herbicidal rate of 5% or more and less than 20%)
same,herbicidal effect on D: Chinese sprangletop,[2]; [27],0 (Herbicidal rate of 5% or less (almost no effect))
same,"herbicidal effect, J: blackgrass",[3]; [27],0 (Herbicidal rate of 5% or less (almost no effect))
same,"herbicidal effect, M: velvetleaf",[4]; [27],1 (Herbicidal rate of 5% or more and less than 20%)
same,"herbicidal effect, N: redroot pigweed",[5]; [27],4 (Herbicidal rate of 70% or more and less than 90%)
same,"herbicidal effect, I: wild oat",[6]; [27],0 (Herbicidal rate of 5% or less (almost no effect))
same,"herbicidal effect, F: southern crabgrass",[7]; [27],0 (Herbicidal rate of 5% or less (almost no effect))
same,"herbicidal effect, P: chickweed",[8]; [27],4 (Herbicidal rate of 70% or more and less than 90%)
same,"herbicidal effect, R: persian speedwell",[9]; [27],4 (Herbicidal rate of 70% or more and less than 90%)
same,herbicidal effect on H: barnyard grass,[10]; [27],0 (Herbicidal rate of 5% or less (almost no effect))
same,"herbicidal effect, O: lambsquarters",[11]; [27],4 (Herbicidal rate of 70% or more and less than 90%)
same,herbicidal effect on E: rice flat sedge,[12]; [27],3 (Herbicidal rate of 40% or more and less than 70%)
same,"herbicidal effect, G: green foxtail",[13]; [27],0 (Herbicidal rate of 5% or less (almost no effect))
same,"herbicidal effect, H: barnyard grass",[14]; [27],1 (Herbicidal rate of 5% or more and less than 20%)
Cc1nn(C)c(=O)c(-c2c(-c3ccc(C(F)(F)F)cc3)sc3c(F)cccc23)c1O [4-044],herbicidal effect on H: barnyard grass (evaluation grade 0-5),[15],2 (Herbicidal rate of 20% or more and less than 40%)
same,"Herbicidal effect by soil treatment, K: Italian ryegrass",[1]; [28],0 (Herbicidal rate of 5% or less (almost no effect))
same,herbicidal effect on R: persian speedwell (evaluation grade 0-5),[16],5 (Herbicidal rate of 90% or more (almost completely withered))
same,herbicidal effect on M: velvetleaf (evaluation grade 0-5),[17],3 (Herbicidal rate of 40% or more and less than 70%)
same,herbicidal effect on Chinese sprangletop (D),[2]; 320 g/ha,5 (Herbicidal rate of 90% or more (almost completely withered))
same,"Herbicidal effect by soil treatment, J: blackgrass",[3]; [28],0 (Herbicidal rate of 5% or less (almost no effect))
same,"Herbicidal effect by soil treatment, M: velvetleaf",[4]; [28],0 (Herbicidal rate of 5% or less (almost no effect))
same,"Herbicidal effect by soil treatment, N: redroot pigweed",[5]; [28],0 (Herbicidal rate of 5% or less (almost no effect))
same,herbicidal effect on L: windgrass (evaluation grade 0-5),[18],5 (Herbicidal rate of 90% or more (almost completely withered))
same,herbicidal effect on K: Italian ryegrass (evaluation grade 0-5),[19],4 (Herbicidal rate of 70% or more and less than 90%)
same,herbicidal effect on G: green foxtail (evaluation grade 0-5),[20],1 (Herbicidal rate of 5% or more and less than 20%)
same,herbicidal effect on N: redroot pigweed (evaluation grade 0-5),[21],4 (Herbicidal rate of 70% or more and less than 90%)
same,"Herbicidal effect by soil treatment, I: wild oat",[6]; [28],0 (Herbicidal rate of 5% or less (almost no effect))
same,"Herbicidal effect by soil treatment, F: southern crabgrass",[7]; [28],0 (Herbicidal rate of 5% or less (almost no effect))
same,"Herbicidal effect by soil treatment, P: chickweed",[8]; [28],1 (Herbicidal rate of 5% or more and less than 20%)
same,herbicidal effect on F: southern crabgrass (evaluation grade 0-5),[22],0 (Herbicidal rate of 5% or less (almost no effect))
same,"Herbicidal effect by soil treatment, R: persian speedwell",[9]; [28],3 (Herbicidal rate of 40% or more and less than 70%)
same,herbicidal effect on J: blackgrass (evaluation grade 0-5),[23],0 (Herbicidal rate of 5% or less (almost no effect))
same,herbicidal effect on barnyard grass (H),[10]; 320 g/ha,5 (Herbicidal rate of 90% or more (almost completely withered))
same,"Herbicidal effect by soil treatment, O: lambsquarters",[11]; [28],0 (Herbicidal rate of 5% or less (almost no effect))
same,herbicidal effect on I: wild oat (evaluation grade 0-5),[24],0 (Herbicidal rate of 5% or less (almost no effect))
same,herbicidal effect on rice flat sedge (E),[12]; 320 g/ha,5 (Herbicidal rate of 90% or more (almost completely withered))
same,herbicidal effect on P: chickweed (evaluation grade 0-5),[25],5 (Herbicidal rate of 90% or more (almost completely withered))
same,"Herbicidal effect by soil treatment, G: green foxtail",[13]; [28],0 (Herbicidal rate of 5% or less (almost no effect))
same,herbicidal effect on O: lambsquarters (evaluation grade 0-5),[26],3 (Herbicidal rate of 40% or more and less than 70%)
same,"Herbicidal effect by soil treatment, H: barnyard grass",[14]; [28],0 (Herbicidal rate of 5% or less (almost no effect))
